These results are taken from patent publication US6753331B1, “Heterocyclic derivatives which inhibit factor Xa” (AstraZeneca AB, priority 1998, dated 2004).

One data set has as its system human thrombin. The experiment in a line: test b) C2 (PT) against human thrombin. The following applies: PT = prothrombin time. The data set is classed as biochemical. On the procedure: b) Measurement of Thrombin Inhibition
The procedure of method a) is repeated except that human thrombin (0.005 Units/ml) and the chromogenic substrate S-2238 (KabiVitrum AB, 7 μM) are employed.
c) Measurement of Anticoagulant Activity
An in vitro assay whereby human, rat or rabbit venous blood is collected and added directly to a sodium citrate solution (3.2 g/100 ml, 9 parts blood to 1 part citrate solution). Blood plasma is prepared by centrifugation (1000 g, 15 minutes) and stored at 2-4° C. Conventional prothrombin time (PT) tests are carried out in the presence of various concentrations of a test compound and the concentration of test compound required to double the clotting time, hereinafter referred to as CT2, is determined. In the PT test, the test compound and blood plasma are incubated at 37° C. for 10 minutes. Tissue thromboplastin with calcium (Sigma Limited, Poole, England) is added and fibrin formation and the time required for a clot to form are determined.

Molecules are shown by their SMILES.

Regarding `O=C(c1ccc(-c2ccnnc2)cc1)N1CCN(S(=O)(=O)c2cc3cc(Cl)ccc3[nH]2)CC1` [Example 5, 1-(5-Chloroindol-2-ylsulphonyl)-4-[4-(4-pyridazinyl)benzoyl]piperazine], the melting point lay in the range of 170 to 172 °C.

Consider `O=C(c1ccc(-c2ccncc2)cc1)N1CCN(S(=O)(=O)c2cc3ccc(Cl)cc3[nH]2)CC1` [Example 7, 1-(6-chloroindol-2-ylsulphonyl)-4-[4-(4-pyridyl)benzoyl]piperazine], for which the melting point lay within 231 to 234 °C.

Take `O=C(c1ccc(-c2ccncn2)cc1)N1CCN(S(=O)(=O)c2cc3cc(Cl)ccc3[nH]2)CC1` [Example 4, 1-(5-Chloroindol-2-ylsulphonyl)-4-[4-(4-pyrimidyl)benzoyl]piperazine]: the melting point fell in the range of 229 to 230 °C.

Molecule `O=C(c1ccc(-n2ccnc2)cc1)N1CCN(S(=O)(=O)c2cc3cc(Cl)ccc3[nH]2)CC1` [Example 6, 1-(5-Chloroindol-2-ylsulphonyl)-4-[4-(1-imidazolyl)benzoyl]piperazine] yielded a melting point of 155 to 165 °C.

The molecule `O=C(c1ccc(-c2ccncc2)cc1)N1CCN(S(=O)(=O)c2cc3cc(Cl)ccc3[nH]2)CC1` [Example 3, 1-(5-chloroindol-2-ylsulphonyl)-4-[4-(4-pyridyl)benzoyl]piperazine] gave a melting point of 185 to 188 °C.

On to `O=C(c1ccc(-c2ccncc2)cc1)N1CCN(S(=O)(=O)c2cc3cc(Cl)ccc3o2)CC1` [Example 1, 1-(5-Chlorobenzo[b]furan-2-ylsulphonyl)-4-[4-(4-pyridyl)benzoyl]piperazine], for which the “C2 (PT) against human thrombin” value with human thrombin turned out to be 15 µM.

In turn, `O=C(c1ccc(-c2ccncc2)cc1)N1CCN(S(=O)(=O)c2nc3ccc(Cl)cc3[nH]2)CC1` [Example 8, 1-(5-chlorobenzimidazol-2-ylsulphonyl)-4-[4-(4-pyridyl)benzoyl]piperazine] gave a melting point of 242 to 244 °C.
